From patent US5969115A, “Bisazo dyes and their preparation and use” (Ilford Imaging Switzerland GMBH, priority 1997, dated 1999)

Legend:
Format in all cases: physicochemical
[1] = Color co-ordinates (L*a*b*) of printed samples
Experimental: (§1) The present invention, as far as it relates to inks, is further illustrated by the following examples using dyes according to our invention described in Tables 1 and 2 and dyes representing the state of the art described in Tables 3 and 4. 100 g of each ink were prepared by heating the necessary amount of dye (3-7 g), glycerol (5 g), tetraethylenglycol (1.1 g). and a biocide solution (Promexal X50, available from Zeneca, Manchester, England) (1.2 g) together with water at a temperature of 50° C. under stirring for one hour. The resulting solution was cooled down to 20° C., pH was adjusted to 7.5 and passed through a Millipore® filter of 0.5 μm pore diameter. The dye quantity was adjusted in a way that the density of the printed images was the same for all dyes.
(§2) 30 g of gelatin with a high isoelectric point (type St 70,810, available from Deutsche Gelatinefabriken, Eberbach, Germany) were dissolved in 360 ml of deionised water. 1 g of a surfactant (Olin 10G, available from Olin Corporation, Norwalk, USA) were added to this solution. Immediately before coating 6.6 g of a solution of 2-(4-dimethyl-carbamoyl-pyridino)-ethanesulfonate (3%) were added and pH was adjusted to 6.5. 100 g/m^2 of this solution was then coated onto a resin coated paper support using a bar coater. The recording medium prepared in this way was dried for 12 hours.
(§3) The inks were then jetted onto this recording medium with an HP560 ink jet printer from Hewlett-Packard. The properties of the printed samples were evaluated later on.
L*a*b*-values were measured on printed samples using a Gretag SPM 100 spectrometer, available from Gretag AG, Regensdorf, Switzerland.
Black dyes show a neutral hue if the values of a* and b*out of the L*a*b* color co-ordinates are zero.

[2] = Light fastness of printed samples (density loss after xenon lamp irradiation); conditions: for Density loss in %: xenon lamp, total illumination 20 kJoule/cm^2
Experimental: as §1, §2, §3
The printed samples were irradiated in an Atlas Ci35A Weather-O-Meter® with a r 6500 W Xenon lamp until a total illumination of 20 kJoule/cm^2 was reached. The density loss was measured with an X-Rite® densitometer. It is expressed as % loss of initial density.

[3] = Absorption maximum in water
Text: The absorption maxima and the results of the tests (B) to (D) are listed in Table 6 for the dyes of the invention and in Table 7 for the dyes that are state of the art.

[4] = Dye solubility in deionised water; conditions: for Solubility: deionised water, stirred 1 hour at 50° C., cooled to 20° C., Table 5; for solubility compared with previously known dyes 24 and 26: in words
Experimental: The dye was dispersed in deionised water and this dispersion was stirred for 1 hour at 50° C. Then the mixture was cooled down to 20° C., centrifuged and filtered. Dye solubility was calculated a) from visible spectral data of the filtered solution or b) based on the dried filter residue.

| SMILES | L*a*b*-value: L* ([1]; Table 6) | L*a*b*-value: a* ([1]; Table 6) | L*a*b*-value: b* ([1]; Table 6) | neutral black (color co-ordinates) ([1]; in words) | light fastness ([2]; printed samples, in words) | Density loss in % ([2]; Table 6) | HD max in water ([3]; Table 6) | Solubility [4] | solubility compared with previously known dyes 24 and 26 [4] | L*a*b*-value: L* ([1]; state of the art dyes, Table 7) | L*a*b*-value: a* ([1]; state of the art dyes, Table 7) | L*a*b*-value: b* ([1]; state of the art dyes, Table 7) | Density loss in % ([2]; state of the art dyes, Table 7) | HD max in water ([3]; state of the art dyes, Table 7) |
| --- | --- | --- | --- | --- | --- | --- | --- | --- | --- | --- | --- | --- | --- | --- |
| O=S(=O)(O)CCNc1ccc2cc(S(=O)(=O)O)c(N=Nc3ccc(N=Nc4ccc(CS(=O)(=O)O)cc4)c4ccc(S(=O)(=O)O)cc34)c(O)c2c1 [Compound 8] | 17.3 | 4.0 | -6.6 | neutral blacks | excellent light fastness | 14% | 577 nm | > 20 g per 100 ml | considerably higher solubility |  |  |  |  |  |
| O=C(O)c1cc(N=Nc2ccc(N=Nc3c(S(=O)(=O)O)cc4ccc(NCCS(=O)(=O)O)cc4c3O)c3cc(S(=O)(=O)O)ccc23)cc(C(=O)O)c1 [Compound 16] | 3.8 | 3.4 | 0.5 |  |  | 1% | 580 nm | > 20 g per 100 ml | considerably higher solubility |  |  |  |  |  |
| O=C(O)CCNc1ccc2cc(S(=O)(=O)O)c(N=Nc3ccc(N=Nc4cccc(C(=O)O)c4)c4ccc(S(=O)(=O)O)cc34)c(O)c2c1 [Compound 26, reference compound] |  |  |  |  |  |  |  | 17 g per 100 ml |  | 14.7 | 14.4 | -14.6 | 8% | 568 nm |
